Like-named read-outs stand apart in the source and are kept apart here.
Assays:
[1] = biological target: T1, human serum albumin (HSA) (Homo sapiens, UniProt P02768); test: HSA fluorescence quenching binding study; details: for Ka (association binding constant), HSA / n1 (Number of Binding Sites), HSA / n2 (Hill Coefficient), HSA / Kd / fa (fraction of fluorophore accessible to the quencher), HSA / Kq (bimolecular quenching constant), HSA: 298 K; for fa (fraction of fluorophore accessible to the quencher), HSA / Ksv* (Stern–Volmer quenching constant), HSA: compound 0–8 µM; for Ksv* (Stern–Volmer quenching constant), HSA: Tris-HCl pH 7.4, 298 K; for Kq (bimolecular quenching constant), HSA: from Ksv* with τ0 = 10^−8 s
T1 construct: purchased Sigma-Aldrich Chemical Co. (Schnelldorf, Germany)
Method: (§1) Using a Jasco FP 6500 spectrofluorometer (Jasco, Tokyo, Japan) and quartz cells with a 1 cm path length, the fluorescence spectra of HSA and apo-Tf were recorded in the presence and absence of the examined substances. The 2.5 mL samples containing 2.5 µM HSA or 1 µM apo-Tf were titrated by adding 5 µL of the tested substance at a time, a volume that corresponded to a 1 µM increase in concentration. The concentration range used for these experiments varied from 0 to 8 µM. The relevant spectra were collected in the emission domains of 300–500 nm (HSA) and 305–500 nm (apo-Tf) after 3 min of continuous stirring at room temperature, using excitation wavelengths of 280 nm (HSA) and 295 nm (apo-Tf).
(§2) Experiments were conducted in a pH = 7.4 Tris-HCl buffer (5 mM Tris-HCl/50 mM NaCl for HSA and 5 mM Tris-HCl/50 mM NaCl/25 mM NaHCO3 for apo-Tf).
(§3) The following modified Stern–Volmer equation has been used to calculate the Stern–Volmer constant, which will be denoted as KSV* in order to differentiate it from the Stern–Volmer constant calculated for the DNA binding experiments:(5) F0/F0−F=1/faKsv*[Q]+1/fa where F0 and F are the fluorescence intensities in the absence and presence of the tested compounds, fa is the fraction of fluorophore accessible to the quencher (the tested compounds), [Q] is the quencher concentration, and KSV* (M^−1) is the Stern–Volmer constant; the plot of F0/(F0 − F) against 1/[Q] yields KSV as the slope and fa as the y intercept.
(§4) Subsequently, the bimolecular quenching rate constant was obtained by using Equation (6):(6) Ksv^*=Kqτ0
(§5) Kq (M^−1·s^−1) is the bimolecular quenching rate constant and τ0 is the fluorophore’s lifespan in the absence of the investigated chemicals (10^−8 s). The value of Kq can be used to assess whether the quenching phenomena have an underlying static or dynamic mechanism.
(§6) Using the following equation, the affinity constant (Ka) and the number of binding sites (n) have been calculated: (7) lgF0−F/F=lgKa+nlg[Q]
(§7) The binding affinity, Kd, can be calculated using the quadratic function below:(8) F0−F/F0−Fb=[P]t+[Q]+Kd−([P]t+[Q]+Kd)^2−4[P]t[Q]/2[P]t where F and F0 are the fluorescence intensities of the protein in the presence and absence of the quencher, respectively, Fb is the fluorescence of a fully bound protein–quencher, [P]t is the total concentration of the protein, and [Q] is the concentration of the added quencher. Each binding isotherm was plotted against the total quencher concentration in solution as a function of bound to free protein (F/F0).
(§8) The isotherms were then fitted using the nonlinear regression function below:(9) F/F0= F1+(F2−F1)Kdn/Kdn+[Q]^n where n represents the Hill coefficient, F1 and F2 are the horizontal and vertical asymptotes, respectively. The Kd in Equation (9) is derived from the quadratic binding function (Equation (8)).
(§9) Data were collected in triplicate, averaged, and expressed as mean value ± standard deviation (SD). All graph fitting models were defined and built using OriginPro® 2018.

[2] = biological target: T2, apotransferrin (apo-Tf) (Homo sapiens, UniProt P02787); test: Apo-Tf fluorescence quenching binding study; details: for Ka (association binding constant), Apo-Tf / n1 (Number of Binding Sites), Apo-Tf / n2 (Hill Coefficient), Apo-Tf / Kd / fa (fraction of fluorophore accessible to the quencher), Apo-Tf / Kq (bimolecular quenching constant), Apo-Tf: 298 K; for fa (fraction of fluorophore accessible to the quencher), Apo-Tf / Ksv* (Stern–Volmer quenching constant), Apo-Tf: compound 0–8 µM; for Ksv* (Stern–Volmer quenching constant), Apo-Tf: Tris-HCl pH 7.4, 298 K; for Kq (bimolecular quenching constant), Apo-Tf: from Ksv* with τ0 = 10^−8 s
T2 construct: purchased Sigma-Aldrich Chemical Co. (Schnelldorf, Germany)
Method: as §1, §2, §3, §4, §5, §6, §7, §8, §9

[3] = test system: EB–DNA system (CT-DNA); test: Competitive binding assay with ethidium bromide (EB) through fluorescence spectroscopy; set-up: species or system calf; details: EB 2 µM, CT-DNA 10 µM, compound 0–40 µM
Method: The fluorescence spectra were recorded using 1.6 mL samples containing 10 µM CT-DNA, 2 µM EB, and increasing amounts (0–40 µM with an increment of 5 µM) of tested compounds; the samples were prepared by keeping the components in contact for 10 min at room temperature, under continuous stirring and in the dark. The excitation wavelength was 500 nm, and the spectra were recorded between the wavelengths of 520 and 800 nm. A Jasco FP 6500 fluorometer and quartz cells with a 1 cm route length were employed. The classical Stern–Volmer equation (Equation (3)) was used to interpret the obtained data:(3) F0/F=1+KSV·[Q] F0 and F are the fluorescence intensities of the EB–DNA samples in the absence and presence of the tested compounds, respectively; KSV is the Stern–Volmer constant, which was computed as the slope from the plot of F0/F vs. [Q], where [Q] is the chemical concentration.
The binding ratio was plotted against the logarithm of the concentration in comparison with a control sample exposed solely to DMSO. (4) y=A1+(A2−A1)×x^n/K50^n+x^n
For fitting data points, the modified Hill function with offset (Origin®) was used: where y represents the binding ratio (F/F0), x represents the concentration, A1 represents the minimum of y values, A2 represents the maximum of y values, K50 represents the concentration corresponding to 50% binding or the half maximum binding constant, and n represents the Hill coefficient.

[4] = test system: HUVEC (human umbilical vein endothelial cells); test: MTS cytotoxicity assay, HUVEC normal cell line; type: cell-based; details: 24 h of incubation
Method: (§10) LoVo, MDA-MB-231 and HUVEC human cell lines were purchased from American Type Culture Collection (ATCC). Cells were routinely maintained in culture either in culture flasks or seeded in plates, using Dulbecco’s modified Eagle medium/nutrient mixture F-12 (DMEM:F12) medium supplemented with […], 10% fetal calf serum (Sigma Aldrich, St. Louis, MO, USA), 100 units/mL penicillin, 100 μg/mL streptomycin and incubated at 37 °C in 5% CO2 humidified atmosphere.
(§11) Cytotoxicity studies were performed in 96-well microtiter plates with flat bottoms (Falcon, Teterboro, NJ, USA) using the CellTiter 96 Aqueous One Solution Cell Proliferation Assay (Promega, Madison, WI, USA), an MTS-based colorimetric assay. Metabolically active cells have the ability to reduce MTS [3-(4,5-dimethylthiazol-2-yl)-5-(3-carboxymethoxyphenyl)-2-(4-sulfophenyl)-2H-tetrazolium, inner salt], a yellow tetrazolium salt, to a colored formazan that is soluble in the culture medium. Briefly, 15 × 10^3 cells per well were cultured in 100 µL culture medium. After 24 h, adherent cells were treated with different concentrations of the studied compounds, as well as adriamycin (Adr) and cisplatin (Cis-Pt), used as positive controls for 24 h and 48 h, respectively. Each well was then filled with 20 µL of reagent containing MTS and PES (phenazine ethosulfate, a cationic dye with excellent chemical stability that binds to MTS and produces a stable solution). The resulting formazan was determined using a Tecan GENios Spectrophotometer (Tecan US, Durham, NC, USA) by measuring the absorbance at λ = 492 nm after incubation for 4 h at 37 °C with moderate agitation every 15 min. The cytotoxicity tests were performed in triplicate, with results reported as mean values with standard deviations (SD). The cytotoxicity of DMSO was also investigated under the same conditions, and no harmful effect was found at doses less than 1%.
(§12) Data were expressed as cell viability by comparing with untreated cells considered 100% viable, using the following formula:(1) Cell viability (%)=absorbance of treated cells−absorbance of culture medium/absorbance of untreated cells−absorbance of culture medium

[5] = test system: LoVo (human colorectal adenocarcinoma) cell line; test: MTS cytotoxicity assay, LoVo cell line; type: cell-based; details: 48 h of incubation
Method: as §10, §11, §12

[6] = HSA 2.5 µM, read-out: Kd (dissociation constant), HSA
[7] = apo-Tf 1 µM, read-out: Kd (dissociation constant), Apo-Tf

T2 sequence (P02787 20-698): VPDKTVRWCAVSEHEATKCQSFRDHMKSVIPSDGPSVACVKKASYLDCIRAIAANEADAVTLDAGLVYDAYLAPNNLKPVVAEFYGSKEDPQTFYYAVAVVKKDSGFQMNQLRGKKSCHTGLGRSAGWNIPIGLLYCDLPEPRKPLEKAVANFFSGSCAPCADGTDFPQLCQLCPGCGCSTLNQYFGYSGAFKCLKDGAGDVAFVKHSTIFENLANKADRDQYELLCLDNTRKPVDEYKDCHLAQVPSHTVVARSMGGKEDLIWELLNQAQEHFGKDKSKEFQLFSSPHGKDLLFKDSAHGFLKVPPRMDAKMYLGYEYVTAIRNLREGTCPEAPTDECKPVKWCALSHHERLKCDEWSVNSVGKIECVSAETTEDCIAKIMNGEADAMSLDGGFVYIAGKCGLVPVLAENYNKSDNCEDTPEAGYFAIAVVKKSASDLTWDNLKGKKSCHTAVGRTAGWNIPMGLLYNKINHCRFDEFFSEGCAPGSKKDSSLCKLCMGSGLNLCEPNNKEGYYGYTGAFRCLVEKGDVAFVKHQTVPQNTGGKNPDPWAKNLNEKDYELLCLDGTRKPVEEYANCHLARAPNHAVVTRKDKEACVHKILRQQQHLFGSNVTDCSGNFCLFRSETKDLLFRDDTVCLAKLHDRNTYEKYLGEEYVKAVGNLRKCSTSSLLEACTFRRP
T1 sequence (P02768 25-609): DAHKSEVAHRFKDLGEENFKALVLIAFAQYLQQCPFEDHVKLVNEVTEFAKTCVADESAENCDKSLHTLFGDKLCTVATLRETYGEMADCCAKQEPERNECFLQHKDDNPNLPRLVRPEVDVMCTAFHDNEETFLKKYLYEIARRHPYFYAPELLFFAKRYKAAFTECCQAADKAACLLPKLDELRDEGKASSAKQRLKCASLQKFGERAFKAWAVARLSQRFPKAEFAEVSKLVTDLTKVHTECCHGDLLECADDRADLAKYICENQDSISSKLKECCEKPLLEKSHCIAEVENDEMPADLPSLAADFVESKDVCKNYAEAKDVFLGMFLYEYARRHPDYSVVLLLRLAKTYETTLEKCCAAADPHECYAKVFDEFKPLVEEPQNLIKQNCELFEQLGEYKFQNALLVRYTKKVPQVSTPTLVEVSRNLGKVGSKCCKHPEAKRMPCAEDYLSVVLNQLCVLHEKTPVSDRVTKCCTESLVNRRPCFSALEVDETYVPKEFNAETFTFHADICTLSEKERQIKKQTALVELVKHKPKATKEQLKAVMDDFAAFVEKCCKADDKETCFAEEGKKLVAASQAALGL

Row | SMILES | Ka (association binding constant), HSA ([1]; HSA 2.5 µM) | n1 (Number of Binding Sites), HSA ([1]; HSA 2.5 µM) | n2 (Hill Coefficient), HSA ([1]; HSA 2.5 µM) | Kd [1, 6] [µM] | fa (fraction of fluorophore accessible to the quencher), HSA ([1]; HSA 2.5 µM) | Ksv* (Stern–Volmer quenching constant), HSA ([1]; HSA 2.5 µM) | Kq (bimolecular quenching constant), HSA [1] [M⁻¹ s⁻¹] | Ka (association binding constant), Apo-Tf ([2]; apo-Tf 1 µM) | n1 (Number of Binding Sites), Apo-Tf ([2]; apo-Tf 1 µM) | n2 (Hill Coefficient), Apo-Tf ([2]; apo-Tf 1 µM) | Kd [2, 7] [µM] | fa (fraction of fluorophore accessible to the quencher), Apo-Tf ([2]; apo-Tf 1 µM) | Ksv* (Stern–Volmer quenching constant), Apo-Tf ([2]; apo-Tf 1 µM) | Kq (bimolecular quenching constant), Apo-Tf [2] [M⁻¹ s⁻¹] | EB Displacement Assay K50 (half maximum binding constant) [3] [µM] | KSV, Stern–Volmer quenching constant (EB–DNA) [3] | IC50 [4] [µM] | IC50 [5] [µM] | further results
1 | CCn1cc(C(=O)[O-])c(=O)c2ccc(C)nc21.CCn1cc(C(=O)[O-])c(=O)c2ccc(C)nc21.O.O.O.O.[OH-].[Sm+3] [Sm(nal)2, Sm(C12H11N2O3)2(OH)(H2O)·3H2O] | (8.25 ± 1.62) × 10^5 M^−1 | 1.08 ± 0.01 | 1.34 ± 0.09 | 3.6 ± 0.11 | 1.05 ± 0.02 | (2.50 ± 0.12) × 10^5 M^−1 | 2.5e+13 | (10.17 ± 6.14) × 10^4 M^−1 | 1.01 ± 0.05 | 1.71 ± 0.31 | 6.16 ± 1.27 | 0.79 ± 0.02 | (1.16 ± 0.06) × 10^5 M^−1 | 1.16e+13 | 31.35 ± 4.21 | 10.24 ± 0.22 M^−1 (×10^3) | > 200 | 92.4 ± 16 | quenching effect on HSA fluorescence peak ([1]; HSA 2.5 µM, compound up to 8 µM): ~ 73%; quenching effect on apo-Tf fluorescence peak ([2]; apo-Tf 1 µM, compound up to 8 µM): 35%
2 | CCn1cc(C(=O)O)c(=O)c2ccc(C)nc21 [Nalidixic acid] |  | 1.03 ± 0.01 | 1.33 ± 0.29 | 5.69 ± 1.44 | 1.06 ± 0.02 | (1.25 ± 0.06) × 10^5 M^−1 | 1.25e+13 |  | 0.79 ± 0.02 | 1.55 ± 0.37 | 6.55 ± 2.11 | 0.48 ± 0.03 | (1.02 ± 0.09) × 10^5 M^−1 | 1.02e+13 | 50.41 ± 9.60 | 9.87 ± 0.11 M^−1 (×10^3) |  |  | Kd ([1]; HSA 2.5 µM, read-out: Ka (association binding constant), HSA): 4.57 µM; Kd ([2]; apo-Tf 1 µM, read-out: Ka (association binding constant), Apo-Tf): 323 µM; IC50 ([4]; Homo sapiens): > 200 µM; IC50 (μM) LoVo [5]: not toxic; IC50 ([5]; Homo sapiens): > 200 µM
3 | CCn1cc(C(=O)[O-])c(=O)c2ccc(C)nc21.CCn1cc(C(=O)[O-])c(=O)c2ccc(C)nc21.O.O.O.[La+3].[OH-] [La(nal)2, La(C12H11N2O3)2(OH)(H2O)·2H2O] | (9.03 ± 1.04) × 10^5 M^−1 | 1.09 ± 0.01 | 1.32 ± 0.11 | 3.35 ± 0.11 | 1.09 ± 0.02 | (1.09 ± 0.02) × 10^5 M^−1 | 1.09e+13 | (6.94 ± 2.32) × 10^4 M^−1 | 1.00 ± 0.03 | 1.82 ± 0.55 | 5.43 ± 1.46 | 1.20 ± 0.49 | (0.44 ± 0.23) × 10^5 M^−1 | 4.4e+12 | 31.39 ± 13.66 | 8.90 ± 0.17 M^−1 (×10^3) | 114 ± 46.8 | 25.1 ± 9.11 | 
4 | N.N.[Cl][Pt][Cl] [Cis-Pt, cisplatin, reference compound] |  |  |  |  |  |  |  |  |  |  |  |  |  |  |  |  | 78.5 ± 16 | 38.6 ± 4.63 | 

Source: paper PMC9412414, “A Study on Repositioning Nalidixic Acid via Lanthanide Complexation: Synthesis, Characterization, Cytotoxicity and DNA/Protein Binding Studies” (Pharmaceuticals, 2022)
